Read-outs that look alike come from different tables or passages of the source. Ends that are not written are not given here.
Experiments:
Drosophila melanogaster [1] = conditions: Drosophila flies, 0.05 µl injected, 50% of flies die after 24 h; cited from earlier work
Protocol: Table 3 Insecticidal activities of selected cupiennins, CsTx-16 variants, neurotoxins CsTx-1, CsTx-9, and CsTx-13, and cyto-insectotoxin CIT1a. Different concentrations of peptides were dissolved in 0.1 M ammonium acetate, pH 6.1, and 0.05 µl was injected into Drosophila flies. The lethal dose (LD50, pmol/mg fly), where 50% of the flies die after 24 h, was calculated with PRISM Vers. 6.07. * Data | column: LD50 / (pmol/mg fly)

Drosophila melanogaster [2] = experiment: Insecticidal bioassay with Drosophila flies, lethal dose (LD50) 24 h after injection; type: in vivo; conditions: for LD50: synthetic C-terminally amidated peptide in 0.1 M ammonium acetate pH 6.1, 0.05 µl injected intrathoracically into flight muscles of female flies (1- to 7-days old), 50% of flies die after 24 h, minimum five doses, each n = 20, PRISM Vers. 6.07
Protocol: The insecticidal activity of different cupiennins was investigated in a bioassay with Drosophila melanogaster and the lethal dose, where 50% of the insects die of intoxication after 24 h of injection, calculated. […] The shorter LPs such as Cu 3a, d, and Cu 4a, were with 12.4–38.5 pmol/mg fly less toxic.
Cupiennins 3a, 3b, 4a, 6a, 6b, 6d, 7b, 8, and the two-chain CsTx-16a1b1, and CsTx-16c1d1 were synthesized (all C-terminally amidated) by GeneCust, (Dulange, Luxembourg). Bioassays using Drosophila flies were performed as described elsewhere. Briefly, all peptides were dissolved in 0.1 M ammonium acetate, pH 6.1 and 0.05 µl injected intrathoracically into the flight muscles of female flies (1- to 7-days old). For each peptide, in minimum five different peptide doses were injection into the flies (each n = 20) and also a negative control with only buffer was injected (n = 10). Calculations of the lethal dose (LD50) were done with GraphPad PRISM Vers. 6.07 (GraphPad Software, San Diego, CA, USA).

Cu 1b: cytolytic linear cationic peptide, Cu 1 family, transcript C1 (GFGSLFKFLAKKVAKTVAKQAAKQGAKYIANKQMEG-NH2)
LD50 (Drosophila melanogaster [1]): 4.7 pmol/mg fly

Cu 3a: Cu 3 family linear peptide, synthesized by GeneCust (GFGSLFKFLGKKLLKTVAKQAAKKQMEG-NH2)
LD50 (Drosophila melanogaster [2]): 18.7 pmol/mg fly

Cu 6d: Cu 6 family linear peptide, synthesized by GeneCust (FINTIKLLIEKYREWKNKQSSG-NH2)
LD50 (Drosophila melanogaster [2]): 23.2 pmol/mg fly

Cu 8: Cu 8 family linear peptide of 20 residues, transcript B, synthesized by GeneCust (IWRMPKKVLKLLAAFRGKEG-NH2)
Toxicity ranking among tested cupiennins (Drosophila melanogaster [2]; Drosophila, LD50 after 24 h): lowest toxicity
LD50 (Drosophila melanogaster [2]): 159.7 pmol/mg fly

Source: paper PMC7889660, “Complex precursor structures of cytolytic cupiennins identified in spider venom gland transcriptomes” (Scientific Reports, 2021)
